Laboratory results reported in US20070135515A1, “Method for producing sorbicillactone a” (priority 2004, published 2007).
“Also recorded” adds a separate entry of the source.

How the values were obtained:
neuronal cells = test: Intracellular calcium level [Ca2+]i in primary neurons (Fura-2 fluorescence ratio 340/380 nm); assay type: cell-based, rat; conditions: 200 μM stimulant and 2.5 mM Ca2+, without sorbicillactone A
Excerpt: Material: The same materials as described in Perovic et al. (1998, Mech. Ageing Dev. 101:1-19) were used. Fura-2-acetoxymethylester (Fura-2-AM) was obtained from Molecular Probes (Leiden, The Netherlands), Dulbecco's modified Eagle's Medium with 4.5 g/L glucose (DMEM/HG), L-glutamic acid (L-Glu), and serotonin (5-HT) from Sigma-Aldrich (Taufkirchen, Germany) and the antibodies mouse-anti-neurofilament (68 kDa) and mouse-anti-glial-fibrillary-acidic-protein (GFAP) from Roche Diagnostics (Mannheim, Germany). Sorbicillactone A of the batch: 2208/2a was used.
Primary neurons: The cortical cell culture was produced from the brains of 17-18 day-old rat embryos, according to a modified procedure [Freshney (1987) Culture of specific cell types. In: Culture of Animal Cells. A Manual of Basic Technique, A. R. Liss, New York, S. 257-288; Perovic et al. (1994) Eur. J. Pharmacol. (Mol. Pharmacol. Sec.) 288:27-33]. After the isolation, the cerebral-hemispheres were put into Hank's Balanced Salt Solution (HBSS) without Ca^2+ and Mg^2+, and the neuronal cells were subsequently dissociated in HBSS using 0.025% (w/v) trypsin (10 min.; 37° C.). The proteolytic reaction was stopped with 10% (v/v) foetal calf serum (FCS). The single-cell suspensions were centrifuged, and the resulting pellet was taken up into Dulbecco's modified Eagles's Medium with 4.5 g/L glucose (DMEM/HG) (contains 2 mM L-glutamine, 100 mU/L insulin, and 10% (v/v) FCS). The cells were plated in a chamber with poly-L-lysine (5 μg/mL, 300 μl/cm^2) in a cell density of 2.0×10^5 cells/cm^2. After two days the DMEM/HG/10%-FCS-medium was removed and replaced with DMEM/HG/serum-free medium. Two weeks after the isolation, the immune staining took place with anti-neurofilament (68 kDa) as a marker for neurons, and anti-GFAP as a marker for glial cells. The cultures contained >80% neurons; the residual 20% were GFAP-positive cells, mainly astrocytes (Ushijima et al. (1995) Eur. J. Neurosci. 7:1353-9). The neurons were held in an atmosphere of 95% air and 5% CO2 at 37° C.
Loading of neurons with Fura-2-AM: The intracellular Ca^2+-concentration ([Ca^2+]i) was determined by fluorescence measurements. The ratio of the absorption of the Ca^2+-indicator dye Fura-2-AM at 340 and 380 nm (Grynkiewicz et al. (1985) J. Biol. Chem. 260:3440-50) was decisive. The neurons were loaded with 6 μM Fura-2-AM in DMEM/HG/serum-free medium (supplemented with 1% (w/v) bovine serum albumin) at 37° C. for 60 min. After incubation, the cells were washed two times with medium, and further incubated for 45 min at 37° C.
Calcium-calibration curve: A calcium-calibration curve was produced according to the methods of Grynkiewicz et al. (1985, J. Biol. Chem. 260:3440-50). Fluorescence pictures were obtained for each buffer at 340 and 380 nm. The quotient from both fluorescence spectra (340/380 nm) was calculated, and depicted as a calibration curve. The quotient (340/380 nm [ratio-value]) of 1.0 corresponds to 228 nM [Ca^2+]i.
Changes of the calcium level in neurons: In all experimental settings, the cells were first loaded with Fura-2-AM, and subsequently stimulated with different substances (in Locke's solution; 154 mM NaCl; 5.6 mM KCl; 3.6 mM NaHCO3; 5.6 mM glucose, and 10 mM Hepes; pH 7.4; without CaCl2). Sorbicillactone A was dissolved in a concentration of 10 mg/mL in 100% (v/v) DMSO, and stored at −20° C. In the first setting, the neurons were stimulated for 5 min with 0.1% (v/v) DMSO (control); after 10 min 200 μM L-glutamic acid (L-Glu), 200 μM serotonin (5-HT), and 2.5 mM CaCl2 were added to the cells. In a second setting, the effect of L-Glu, 5-HT, and 2.5 mM CaCl2 on the calcium level of pre-incubated neurons (each 5 min with 10 μg/mL sorbicillactone A) was tested. In all experiments, the [Ca^2+]i-level was measured for at least 20-25 min. […]

[1] = Relative activity compared with sorbicillactone A (test not specified)
[2] = tested on: L5178Y-mouse lymphoma cells (ATCC CRL 1722); test: Apoptosis detection (Cell Death Detection ELISA plus); assay type: cell-based; conditions: for MW ± SD (OD) / % of the control (negative): 4 hours incubation; for MW ± SD (OD): 405 nm; for % of the control (negative): negative control = 100%
Protocol: Material: RPMI1640-medium, Hepes buffered, was obtained from Sigma-Aldrich (Taufkirchen, Germany), foetal calf serum (FCS) from Gibco (Karlsruhe, Germany), and Cell Death Detection ELISA plus from Roche (Mannheim, Germany, Cat. No. 1774425). Sorbicillactone A of the batch: 2208/2a was used.
Incubation and preparation of the cells: The L5178Y-mouse lymphoma cells (ATCC CRL 1722)) were counted, and adjusted to a number of cells of 10^4 cells/mL. The sorbicillactone-A- and dihydrosorbicillactone-A-stock solution (10 mg/mL in DMSO) was diluted with medium (RPMI/Hepes with 10% FCS) to concentrations of 60, 20, and 6 μg/mL. In a 96-well-culture plate, 100 μl cell suspension (˜10^3 cells) were each pipetted to each of the 100 μl of the different dihydrosorbicillactone-A- and sorbicillactone-A-solutions. RPMI1640-medium without dihydrosorbicillactone and sorbicillactone A was used as a negative control. The final concentrations were 30, 10, and 3 μg/mL sorbicillactone A and dihydrosorbicillactone A. Four parallel settings of each sample were analysed. The cells were incubated for 4 hours at 37° C. After the incubation, the culture plate was centrifuged at […] (˜1200 rpm) for 10 min at room temperature. The supernatant was carefully pipetted off, and the cells were each overlayered with 200 μl lysis-buffer (Roche-Kit). Then, the cells were lysed for 30 min at room temperature. After the lysis, the culture plate was again centrifuged at 200×g (˜1200 rpm) for 10 min at room temperature.
ELISA: Two strips with eight wells each were taken from the streptavidin-ELISA-plate of the Roche-kit. 20 μl of the supernatant of a cell-lysis (see above) were added into each well. In doing so, the samples with 30 or 10 μg/mL of sorbicillactone A and dihydrosorbicillactone A were loaded as 4-fold, and all other as duplicate determinations. In addition to these sample, a positive control (DNA-histone-complex) was loaded. Then, 80 μl of immune reagent were added into each well. This solution consisted of incubation buffer, anti-histone-biotin, and anti-DNA-peroxidase. The incubation buffer was used as a blank value. The ELISA-plate was incubated for 2 hours in a shaking incubator at room temperature. Them the supernatants were carefully removed, and the wells were each washed 3× with 250 μl of the incubation buffer. After the washing, 100 μl of ABTS-solution were added into each “well”. Subsequently, the cells were incubated for 30 min in the dark at room temperature. The measurement took place in a multiscan at an emission wavelength of 405 nm.

SMILES	increase of the 340-/380-nm-values (neuronal cells)	increase of the 340-/380-nm-values, control assumed to be 100% (neuronal cells) [%]	activity relative to sorbicillactone A [1]	MW ± SD (OD) ([2]; 3 μg/mL)	% of the control (negative) ([2]; 3 μg/mL) [%]	MW ± SD (OD) ([2]; 10 μg/mL)	% of the control (negative) ([2]; 10 μg/mL) [%]	MW ± SD (OD) ([2]; 30 μg/mL)	% of the control (negative) ([2]; 30 μg/mL) [%]	induction of apoptosis ([2]; 3, 10, and 30 μg/mL, 4 hours of incubation)
N[C@@H](CCC(=O)O)C(=O)O [L-glutamic acid]	1.715±0.081	307.1								
NCCc1c[nH]c2ccc(O)cc12 [Serotonin, serotonin]	0.971±0.112	219.9								
C/C=C/CC/C(O)=C1/C(=O)C(C)=C(O)[C@@]2(C)OC(=O)[C@@](C)(NC(=O)/C=C/C(=O)O)[C@@H]12 [dihydrosorbicillactone A]			five-fold less active	0.016 ± 0.003	76.2	0.013 ± 0.002	61.9	0.016 ± 0.004	76.2	did not result in an induction of apoptosis; also recorded: did not induce apoptosis
